Assay results reported in patent publication US7759366B2 (Sanofi-Aventis, priority 2006, dated 2010).
pIC50, pKi: −log10 of the molar value. Where a name gives a salt, the structure may show the parent alone. Read-outs that look alike come from different tables or passages of the source.

Key:
hCB1R [1] = target: T1, hCB1R (Homo sapiens, UniProt P21554); assay: Binding to the CB1 receptor ([3H]-SR141716A displacement)
Outline: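 [3H]-SR141716A displacement at hCB1R; test compounds at final 10 μM to 0.005 μM in assay buffer with 1% DMSO, duplicate determinations. Low control 1 μM AM 251, high control binding without compound; IC50 from curve fit, converted to Ki via Cheng-Prusoff using Kd.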

hCB2R = hCB2R (Homo sapiens, UniProt P34972); assay: In vitro functional assay (FLIPR, intracellular Ca2+) with recombinant HEK293 cells, CB2;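 also: intracellular Ca2+ was tracked with the fluorescent dye Fluo-4 loaded into the cells before test substance addition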
Sequence of hCB2R (P34972 whole entry): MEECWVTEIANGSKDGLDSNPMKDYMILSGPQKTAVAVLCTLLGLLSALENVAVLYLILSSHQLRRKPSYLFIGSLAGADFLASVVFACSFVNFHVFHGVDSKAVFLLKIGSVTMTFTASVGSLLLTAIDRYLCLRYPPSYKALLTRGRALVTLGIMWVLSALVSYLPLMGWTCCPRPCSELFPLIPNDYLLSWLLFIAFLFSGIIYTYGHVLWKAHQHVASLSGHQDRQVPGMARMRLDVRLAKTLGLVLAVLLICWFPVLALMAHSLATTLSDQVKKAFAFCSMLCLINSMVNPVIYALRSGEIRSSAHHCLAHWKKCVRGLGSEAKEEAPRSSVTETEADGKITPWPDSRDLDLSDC
Experimental: Function-testing assays were performed by means of the FLIPR technique (“Fluorometric Imaging Plate Reader”, Molecular Devices Corp.).
To this end, ligand-induced changes in the intracellular concentration of Ca^2+ in recombinant HEK293 cells, which expressed both a cannabinoid receptor (CB1 or CB2) and G-protein Galpha16, were determined. For the studies, cells were sown into 96-well microtiter plates (60 000 cells/well) and left to grow overnight. The medium was removed and the cells were incubated in buffer which contained the fluorescent dye Fluo-4. After this loading with dye, the cells were washed, test substance was added dissolved in buffer, the mixture was incubated for 20 minutes, a known cannabinoid receptor agonist as a reference agonist was added in buffer and, finally, the changes in the intracellular Ca^2+ concentration were measured in the FLIPR unit.

hCB1R [2] = target: T1, hCB1R; assay: In vitro functional assay (FLIPR, intracellular Ca2+) with recombinant HEK293 cells, CB1; assay type: cell-based; parameters: expressed in transfected cells; host or cells: HEK293
Source text: In Vitro Functional Assays with Recombinant Cells:

[3] = read-out: hCB2R: FLIPR, IC50, recombinant HEK293 cells expressing CB2 and Galpha16, 20 min preincubation, then reference agonist, Ca2+ change
[4] = CHO-K1/cannabinoid CB1 protein 2 μg/well, [3H]-SR141716A 0.5 nM, Ki from IC50 by Cheng-Prusoff, average of double determination, read-out: hCB1R, binding Ki
[5] = recombinant HEK293 cells expressing CB1 and Galpha16, 20 min preincubation, then reference agonist, Ca2+ change, read-out: hCB1R: FLIPR, IC50

T1 sequence (P21554 whole entry): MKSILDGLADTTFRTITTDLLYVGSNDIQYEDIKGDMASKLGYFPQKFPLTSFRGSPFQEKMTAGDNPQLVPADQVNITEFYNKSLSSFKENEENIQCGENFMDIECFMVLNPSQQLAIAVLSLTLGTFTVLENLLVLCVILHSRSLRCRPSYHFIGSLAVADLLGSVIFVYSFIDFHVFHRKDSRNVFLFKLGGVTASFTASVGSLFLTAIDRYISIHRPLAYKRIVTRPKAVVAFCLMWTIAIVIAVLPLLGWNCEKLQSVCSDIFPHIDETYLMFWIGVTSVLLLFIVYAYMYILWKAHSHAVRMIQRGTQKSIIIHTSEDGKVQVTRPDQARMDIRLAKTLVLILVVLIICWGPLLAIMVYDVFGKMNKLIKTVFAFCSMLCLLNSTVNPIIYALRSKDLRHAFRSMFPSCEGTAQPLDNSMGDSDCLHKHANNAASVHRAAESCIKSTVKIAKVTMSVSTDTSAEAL

Row | pKi (hCB1R [1]; [4]) | pIC50 (hCB2R) | SMILES | pKi (hCB1R [1]) | pIC50 (hCB2R; [3]) | pIC50 (hCB1R [2]) | pIC50 (hCB1R [2]; [5])
1 |  |  | CC1(C)C(=O)N(c2ccc(C#N)c(C(F)(F)F)c2)C(=O)N1Cc1ccccc1Nc1ccccc1 [Example 1, 4-[4,4-Dimethyl-2,5-dioxo-3-(2-phenylaminobenzyl)imidazolidin-1-yl]-2-trifluoromethylbenzonitrile] | 7.89 | < 5.00 | 8.00 | 
2 |  |  | CC1(C)C(=O)N(c2ccc(C#N)c(C(F)(F)F)c2)C(=O)N1Cc1ccccc1Nc1ccc(C(F)(F)F)cc1 [Example 5, 4-{3-[2-(4-trifluoromethylphenylamino)benzyl]-4,4-dimethyl-2,5-dioxoimidazolidin-1-yl}-2-trifluoromethylbenzonitrile] | 8.15 | < 5.00 | 7.36 | 
3 |  |  | CC1(C)C(=O)N(c2ccc(C#N)c(C(F)(F)F)c2)C(=O)N1Cc1ccccc1Nc1ccc(F)cc1F [Example 11, 4-{3-[2-(2,4-difluorophenylamino)benzyl]-4,4-dimethyl-2,5-dioxoimidazolidin-1-yl}-2-trifluoromethylbenzonitrile] | 9.00 | < 5.00 | 9.15 | 
4 |  |  | CC1(C)C(=O)N(c2ccc(C#N)c(C(F)(F)F)c2)C(=O)N1Cc1cccc(Cl)c1Nc1ccc(F)cc1F [Example 42, 4-{3-[5-chloro-6-(2,4-difluorophenylamino)benzyl]-4,4-dimethyl-2,5-dioxoimidazolidin-1-yl}-2-trifluoromethylbenzonitrile] | 9.00 | < 5.00 | 7.92 | 
5 |  |  | CC1(C)C(=O)N(c2ccc(C#N)c(C(F)(F)F)c2)C(=O)N1Cc1ccc(C(F)(F)F)cc1Nc1ccc(F)cc1F [Example 56, 4-{3-[2-(2,4-difluorophenylamino)-4-trifluoromethylbenzyl]-4,4-dimethyl-2,5-dioxoimidazolidin-1-yl}-2-trifluoromethylbenzonitrile] | 8.52 | < 5.00 | 8.10 | 
6 |  |  | COC(=O)c1ccc(Nc2ccccc2CN2C(=O)N(c3ccc(C#N)c(C(F)(F)F)c3)C(=O)C2(C)C)cc1 [Example 60, methyl 4-{2-[3-(4-cyano-3-trifluoromethylphenyl)-5,5-dimethyl-2,4-dioxoimidazolidin-1-ylmethyl]phenylamino}benzoate] | 9.00 | < 5.00 | 8.70 | 
7 |  |  | CC(C)(C)c1cc(N2C(=O)N(Cc3ccccc3Nc3ccc(F)cc3F)C(C)(C)C2=O)ccc1C#N [Example 64, 2-tert-butyl-4-{3-[2-(2,4-difluorophenylamino)benzyl]-4,4-dimethyl-2,5-dioxoimidazolidin-1-yl}benzonitrile] | 8.30 | < 5.00 | 7.80 | 
8 | 8.15 | < 5.00 | CC1(C)C(=O)N(c2ccnc(C(F)(F)F)c2)C(=O)N1Cc1ccccc1Nc1ccc(F)cc1F [Example 66, 1-[2-(2,4-difluorophenylamino)benzyl]-5,5-dimethyl-3-(2-trifluoromethylpyridin-4-yl)imidazolidine-2,4-dione] |  |  |  | 7.60
9 |  |  | COc1ccc(Nc2ccccc2CN2C(=O)N(c3ccc(C#N)c(C(F)(F)F)c3)C(=O)C2(C)C)cc1 [Example 67, 4-{3-[2-(4-methoxyphenylamino)benzyl]-4,4-dimethyl-2,5-dioxoimidazolidin-1-yl}-2-trifluoromethylbenzonitrile] | 9.00 | < 5.00 | 9.00 | 
10 |  |  | CC1(C)C(=O)N(c2ccc(C#N)c(C(F)(F)F)c2)C(=O)N1Cc1ccccc1Nc1ccc(CC(N)=O)cc1 [Example 97, 2-(4-{2-[3-(4-Cyano-3-trifluoromethylphenyl)-5,5-dimethyl-2,4-dioxoimidazolidin-1-ylmethyl]phenylamino}phenyl)acetamide] |  | < 5.00 | 8.15 | 
11 |  |  | CC1(C)C(=O)N(c2ccc(C#N)c(C(F)(F)F)c2)C(=O)N1Cc1ccccc1Nc1ccc(C(N)=O)cc1 [Example 136, 4-{2-[3-(4-Cyano-3-trifluoromethylphenyl)-5,5-dimethyl-2,4-dioxoimidazolidin-1-ylmethyl]phenylamino}benzamide] |  | < 5.00 | 8.30 | 
12 |  |  | CC1(C)C(=O)N(c2ccc(C#N)c(C(F)(F)F)c2)C(=O)N1Cc1ccccc1Nc1ccc(C(=O)NC(CO)CO)cc1 [Example 137, 4-{2-[3-(4-cyano-3-trifluoromethylphenyl)-5,5-dimethyl-2,4-dioxoimidazolidin-1-ylmethyl]phenylamino}-N-(2-hydroxy-1-hydroxymethylethyl)benzamide] | 7.29 | < 5.00 |  | 
13 |  |  | CCOC(=O)COc1ccc(Nc2ccccc2CN2C(=O)N(c3ccc(C#N)c(C(F)(F)F)c3)C(=O)C2(C)C)cc1 [Example 138, ethyl (4-{2-[3-(4-cyano-3-trifluoromethylphenyl)-5,5-dimethyl-2,4-dioxoimidazolidin-1-ylmethyl]phenylamino}phenoxy)acetate] |  | < 5.00 | 8.40 | 
14 |  |  | COC(=O)c1ccc(Nc2ccccc2CN2C(=O)N(c3ccc(C#N)c(C(F)(F)F)c3)C(=O)C2(C)C)cc1OC [Example 140, methyl 4-{2-[3-(4-cyano-3-trifluoromethylphenyl)-5,5-dimethyl-2,4-dioxoimidazolidin-1-ylmethyl]phenylamino}-2-methoxybenzoate] | 7.59 | < 5.00 |  | 
15 |  |  | CC1OC(=O)c2cc(Nc3ccccc3CN3C(=O)N(c4ccc(C#N)c(C(F)(F)F)c4)C(=O)C3(C)C)ccc2O1 (stereo not shown) [Example 142, 4-{4,4-dimethyl-3-[2-(2-methyl-4-oxo-4H-1,3-benzodioxin-6-ylamino)benzyl]-2,5-dioxoimidazolidin-1-yl}-2-trifluoromethylbenzonitrile] | 8.52 | < 5.00 |  | 
16 | 7.72 | < 5.00 | CC1(C)C(=O)N(c2ccc(F)c(C(F)(F)F)c2)C(=O)N1Cc1ccccc1Nc1ccc(C(=N)N)cc1 [Example 144, 4-{2-[3-(4-Fluoro-3-trifluoromethylphenyl)-5,5-dimethyl-2,4-dioxoimidazolidin-1-ylmethyl]phenylamino}benzamidine hydrochloride] |  |  |  | 

Row | SMILES | pKi (hCB1R [1]; [4]) | pIC50 (hCB2R) | pKi (hCB1R [1]) | pIC50 (hCB2R; [3]) | pIC50 (hCB1R [2]) | pIC50 (hCB1R [2]; [5])
17 | CC1(C)C(=O)N(c2ccc(F)c(C(F)(F)F)c2)C(=O)N1Cc1ccccc1Nc1ccc(C(=N)NO)cc1 [Example 143, 4-{2-[3-(4-Fluoro-3-trifluoromethylphenyl)-5,5-dimethyl-2,4-dioxoimidazolidin-1-ylmethyl]phenylamino}-N-hydroxybenzamidine hydrochloride] |  | < 5.00 |  |  |  | 7.89
